Measured values: US20240131028A1, “CHEMOVACCINATION AGAINST PLASMODIUM INFECTION WITH SELECTIVE PLASMEPSIN X INHIBITORS” (Merck Sharp & Dohme LLC, priority 2021, published 2024)
Entries after “also recorded” stand apart in the source; their conditions may differ. Like-named read-outs stand apart in the source and are kept apart here.

What was measured:
[1] = target: PfPMX (recombinant plasmepsin X) (Plasmodium falciparum, UniProt Q8IAS0); assay: FRET based assay for plasmepsin X cleavage of Rh2 peptide substrate; format: biochemical; settings: AVG, N=2, pH 5.5
PfPMX (recombinant plasmepsin X), sequence (Q8IAS0 222-573): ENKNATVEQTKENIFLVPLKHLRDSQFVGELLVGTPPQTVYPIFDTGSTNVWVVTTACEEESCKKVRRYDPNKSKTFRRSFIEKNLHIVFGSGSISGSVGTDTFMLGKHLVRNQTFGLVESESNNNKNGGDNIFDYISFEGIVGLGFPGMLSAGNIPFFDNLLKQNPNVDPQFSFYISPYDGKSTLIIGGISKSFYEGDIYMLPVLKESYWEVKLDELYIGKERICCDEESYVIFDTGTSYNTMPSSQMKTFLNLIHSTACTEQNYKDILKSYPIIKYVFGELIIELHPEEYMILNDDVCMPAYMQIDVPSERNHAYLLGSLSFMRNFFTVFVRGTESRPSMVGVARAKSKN
Procedure: (§1) For cleavage assays, 10-point dilution series of the compounds (Compound EC50 determined by LDH assay) were prepared in 1536 well black low volume assay plates (Corning #3728) using an Acoustic Dispenser Echo555 (Labcyte). Appropriate volumes of 10 mM compound stocks were transferred into the assay plates starting at a top dose of 0.9 μM for PfPMX and 90 μM for PfPMIX in a 1:3 fold dilution series with 1% DMSO final concentration. IC50 values were analysed in Graphpad Prism software using a nonlinear regression four-parameter fit analysis. The equation used was sigmoidal dose response (variable slope), Y=bottom+[…].
(§2) All compound potency assays were conducted in 5 μl total volume. […] Samples were excited at 340 nm and fluorescence emission measured at 490 nm using PHERAstar FSX plate reader (BMG). […]
(§3) For cleavage assays, 10-point dilution series of the compounds, recombinant PMIX or PMX, and FRET peptide substrates were prepared in 1536 well plates. Samples were excited at 340 nm and fluorescence emission measured at 492 nm using an Envision fluorescence plate reader (Perkin-Elmer).
(§4) IC50 values were calculated by Dotmatics 5.3 and Spotfire 7.11.1 software using a nonlinear regression four-parameter fit analysis. […]

[2] = tested on: ring stage parasites (Pf); assay: Parasite lactate dehydrogenase (LDH) growth assay (Parasite Assay, PfLDH Assay); format: cell-based, P. falciparum
[3] = target: T1, PfPMIX (recombinant plasmepsin IX) (Plasmodium falciparum, UniProt Q8ILG2); assay: FRET based assay for plasmepsin IX cleavage of RON3 peptide substrate; format: biochemical; settings: AVG, N=2, pH 5.5
T1 sequence (Q8ILG2 1-627): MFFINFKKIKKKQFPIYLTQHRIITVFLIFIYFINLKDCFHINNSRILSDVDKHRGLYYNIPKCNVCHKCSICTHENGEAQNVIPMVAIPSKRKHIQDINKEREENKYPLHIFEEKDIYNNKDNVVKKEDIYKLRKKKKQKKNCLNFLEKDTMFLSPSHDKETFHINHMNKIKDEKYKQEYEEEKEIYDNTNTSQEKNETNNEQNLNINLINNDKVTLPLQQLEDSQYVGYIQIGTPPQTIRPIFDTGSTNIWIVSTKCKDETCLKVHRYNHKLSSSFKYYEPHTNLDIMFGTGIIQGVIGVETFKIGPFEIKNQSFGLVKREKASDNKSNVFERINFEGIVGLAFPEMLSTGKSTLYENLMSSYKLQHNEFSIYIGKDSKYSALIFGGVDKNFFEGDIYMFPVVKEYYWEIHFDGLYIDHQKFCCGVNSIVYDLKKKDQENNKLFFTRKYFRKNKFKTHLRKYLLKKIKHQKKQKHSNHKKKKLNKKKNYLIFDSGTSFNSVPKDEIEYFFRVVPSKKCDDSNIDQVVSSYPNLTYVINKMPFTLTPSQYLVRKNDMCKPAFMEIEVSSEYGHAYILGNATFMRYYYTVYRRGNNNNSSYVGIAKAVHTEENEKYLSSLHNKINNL
Procedure: as §1, §2, §3, §4

[4] = tested on: Plasmodium berghei sporozoites (PbmCherryLuci); assay: Chemovaccination of mice: sporozoite liver infection, oral treatment, mosquito bite challenge; format: in vivo, Plasmodium berghei in C57BL/6 mice
Procedure: The indicated number of Plasmodium berghei sporozoites expressing mCherry and luciferase reporters (PbmCherryLuci) were inoculated intravenously, and compounds were administered to mice by oral gavage 36 and 48 hours after injection during liver infection. Plasmodium berghei liver infection levels and egress of parasites from the liver were measured by bioluminescence signal from the parasites using the luciferase reporter and an In Vivo Imaging System (IVIS, Perkin Elmer) at the peak of liver infection (52 hours post infection, hpi), during liver egress (55 hpi) as well as during the first round of blood infection (65 hpi). Initiation of blood infection was also measured by flow cytometry at 65 hpi using the mCherry reporter to determine the parasitemia of this first round of blood infection. These analyses allowed quantification of the efficacy of drug killing of parasites in the liver (52 hpi), preventing their egress from the liver (55 hpi) or preventing their successful infection of the blood (65 hpi). Mice were monitored by giemsa stained thin blood smears for the presence of parasites in the blood for 30 days post infection. If no blood infection was seen during the subsequent 30 days, the mice were declared cured of malaria infection thus indicating the chemoprophylactic activity of these compounds.
The chemoprophylactic activity of administered compounds is not to kill liver Plasmodium berghei parasites nor to prevent their egress from the liver, but rather that liver-derived merozoites were unable to initiate a blood infection in these mice. The parasites are thus attenuated by the administered compounds. Such parasite attenuation by genetic means is a powerful vaccination strategy, and as such cure of liver parasites by the compounds could simultaneously be considered as chemoprophylaxis as well as a chemovaccination strategy. Mice previously cured of liver infection with the administered compounds (Chemovaccinated) were challenged with bites from 10 PbmCherryLuci infected mosquitoes at the indicated times after cure of liver infection with the administered compounds to determine the level of immunity engendered by this chemovaccination approach.
C57BL/6 mice were administered Example 2, as described in the general procedure. Thirty nine mice were infected with 40,000 sporozoites. Twenty-one mice were untreated. Six C57BL/6 mice were administered 2×100 mg/kg of Example 2. Six C57BL/6 mice were administered 2×200 mg/kg. Six C57BL/6 mice were administered 2×500 mg/kg. Example 2 dosed at 2×100 mg/kg cured four of six mice of their infection, as did mice dosed with 2×200 mg/kg of Example 2. […] These infections and treatments can be considered immunizations or chemovaccinations, since the parasite is attenuated by Example 2 and is unable to initiate the blood infection.
Additionally, the eight mice previously chemovaccinated with 2×100 mg/kg and 2×200 mg/kg of Example 2 were challenged three months later with bites from 10 mosquitoes infected with PbmCherryLuci sporozoites.

[5] = Plasmodium falciparum, 72 h, Table 3, 72 hours growth, LDH readout, read-out: EC50
[6] = eight mice chemovaccinated once with 2×100 or 2×200 mg/kg, challenged three months later, bites from 10 infected mosquitoes

With CCC1(CC)CC(=O)N([C@H](c2cccnc2)[C@H]2C[C@@H]2C(=O)N[C@H]2CC(C)(C)Oc3ccccc32)C(=N)N1 [Example 2, (1S,2S)-2-((S)-(4,4-diethyl-2-imino-6-oxotetrahydropyrimidin-1(2H)-yl)(pyridin-3-yl)methyl)-N—((S)-2,2-dimethylchroman-4-yl)cyclopropanecarboxamide] the Ki [1] was 0.026 nM, the EC50 [2, 5] was 0.9 nM and the EC50 ([2]; Plasmodium falciparum, Table 6, AVG, N=3, read-out: PfLDH Assay (EC50)) was 0.86 nM. For the same molecule, the Ki [3] was 5.95 nM, the “mice cured of their infection” value ([4]; 2×100 mg/kg oral gavage 36 and 48 h after 40,000 sporozoites i.v., 30 days monitoring) was “four of six” and the “mice cured of their infection” value ([4]; 2×200 mg/kg oral gavage 36 and 48 h after 40,000 sporozoites i.v., 30 days monitoring) was “four of six”. For the same molecule, the “mice cured of their infection (chemoprophylaxis)” value ([4]; 2×500 mg/kg oral gavage 36 and 48 h after 40,000 sporozoites i.v., 30 days monitoring, FIG. 1) was “cured all mice of their infection; also recorded: never got malaria”, the “protection from infection upon mosquito bite challenge after two immunizations” value ([4]; 2×500 mg/kg twice, challenged 3 months later, bites from 10 infected mosquitoes, FIG. 2) was “completely protected from infection” and the “protection after two immunizations” value ([4]; 2×500 mg/kg twice, mosquito bite challenge 3 months later, FIG. 2) was 100%. The “development of malaria disease after challenge, one immunization” value [4, 6] was “all mice ultimately developed malaria disease”, the “infection upon mosquito bite challenge after one immunization” value [4, 6] was “showed a reduction in infection upon challenge” and the “cure of second infection (boost immunization)” value ([4]; six mice, six weeks later 20,000 sporozoites, 2×500 mg/kg) was “cured them of this second infection”.
COCC[C@H]([C@H]1C[C@@H]1C(=O)N[C@@H]1CC(C)(C)Oc2c(C(F)(F)F)ccc(F)c21)N1C(=N)NC(C)(C)CC1=O [Example 114A] showed an EC50 [2, 5] of 89 nM.
CC1(C)CC(=O)N([C@H](c2cccnc2)[C@H]2C[C@@H]2C(=O)NC2CC(C)(C)Oc3ccc(C(F)(F)F)cc32)C(=N)N1 (single isomer, unassigned) [Example 109B] gave an EC50 ([2]; Table 3, 72 hours growth, LDH readout, read-out: EC50) of 1 nM.
CCC1(CC)CC(=O)N(C[C@H]2C[C@@H]2C(=O)N[C@@H]2C[C@@H](C(F)(F)F)Oc3ccccc32)C(=N)N1 [Example 8B] gave an EC50 [2, 5] of 5.3 nM.
